Measurements published in patent publication US4812162A, “Indole derivatives and their use as fungicides, insecticides and pesticides” (Imperial Chemical Industries PLC, priority 1986, dated 1989).

Assays:
[1] = tested on: Heliothis virescens (tobacco budworm - larvae); assay: insecticidal properties, residual test, Heliothis virescens larvae (HV); type: in vivo; conditions: 500 ppm, cotton leaf, 3 days
Text: (§1) "SYNPERONIC" is a Registered Trade Mark.

[2] = tested on: Blattella germanica (cockroach nymphs); assay: insecticidal properties, residual test, Blattella germanica nymphs (BG); type: in vivo; conditions: 500 ppm, plastic pot, 3 days
Text: as §1

[3] = tested on: Nilaparvata lugens (brown plant hopper - nymphs); assay: insecticidal properties, contact test, Nilaparvata lugens nymphs (NL); type: in vivo; conditions: 500 ppm, rice plant, 3 days
Text: as §1

Apple = assay: plant growth regulating, whole plant screen, apple; type: in vivo, Apple (Red Delicious); conditions: apple (AP); 4000 ppm (4 kg/ha); after 2-6 weeks
Procedure: (§2) This Example illustrates the plant growth regulating properties of compounds 1 and 2 when tested on a whole plant screen against various species of plant. The plant species are identified in Table IV with the leaf stage at which they were sprayed.
(§3) A formulation of each chemical was applied at 4000 ppm (4 kg/ha in a 1000 l/ha field volume) using a tracksprayer and a SS8004E (Teejet) nozzle.
(§4) After spraying, the plants were grown in a glasshouse with 25° C. day/22° C. night temperatures. Supplementary lighting was supplied when necessary to provide an average photoperiod of 16 hours (14 hours minimum).
(§5) After 2-6 weeks in the glasshouse, depending on species and time of year, the plants were visually assessed for morphological characteristics against a control plant sprayed with a blank formulation.

[4] = tested on: Musca domestica (houseflies - adults); assay: insecticidal properties, contact test, Musca domestica adults (MDa); type: in vivo; conditions: 500 ppm, cotton wool/sugar, 1 day
Text: as §1

Pyricularia oryzae = type: in vivo; conditions: 100 ppm foliar spray plus root drench ca. 40 ppm a.i./dry soil, 1-2 days before inoculation
[5] = tested on: Diabrotica balteata (rootworm larvae); assay: insecticidal properties, residual test, Diabrotica balteata (DB); type: in vivo; conditions: 500 ppm, filter paper/maize seed, 3 days
Text: as §1

[6] = tested on: Meloidogyne incognita (tomato root knot eelworm - larvae); assay: nematode test, residual, Meloidogyne incognita larvae (MI); type: in vivo; conditions: 250 ppm, semi in-vitro, 7 days
Text: as §1
MI Meloidogyne incognita

[7] = tested on: Musca domestica (houseflies - adults); assay: knockdown properties against Musca domestica (MDk); type: in vivo; conditions: 2000 ppm sprayed directly; inverted cup; knockdown at 15 minutes, mortality at 48 hours; 2 days
Procedure: A sample of compound 1 was diluted with 2 mls acetone and made up of a 2000 ppm solution with 0.1% aqueous synperonic solution. The solution (1 ml) was then sprayed directly onto twenty mixed sex houseflies held in a drinking cup. Immediately after spraying the cups were inverted and left to dry. An assessment of knockdown was made when the cups were righted 15 minutes later. The flies were then provided with a 10% sucrose solution on a cotton wool pad, and held for 48 hours in a holding room conditioned at 25° C. and 65% relative humidity before a mortality assessment was made.

Venturia inaequalis = assay: fungicidal activity against foliar fungal diseases of plants, Venturia inaequalis (apple); type: in vivo; conditions: 100 ppm foliar spray plus root drench ca. 40 ppm a.i./dry soil, 1-2 days before inoculation
Erysiphe graminis = assay: fungicidal activity against foliar fungal diseases of plants, Erysiphe graminis (barley); type: in vivo; conditions: 100 ppm foliar spray plus root drench ca. 40 ppm a.i./dry soil, inoculated 24 hours before treatment
Plasmorpara viticola = assay: fungicidal activity against foliar fungal diseases of plants, Plasmorpara viticola (vine); type: in vivo; conditions: 100 ppm foliar spray plus root drench ca. 40 ppm a.i./dry soil, 1-2 days before inoculation
[8] = tested on: Tetranychus urticae (spider mites - ova); assay: insecticidal properties, contact test, Tetranychus urticae ova (TUe); type: in vivo; conditions: 500 ppm, French bean leaf, 6 days
Text: as §1

[9] = tested on: Chilo partellus (maize and sorghum stem borers - larvae); assay: insecticidal properties, residual test, Chilo partellus larvae (CPA); conditions: 500 ppm, oilseed rape, 3 days
Procedure: The activity of the compound was determined using insect, mite and nematode pests. The compound was used in the form of a liquid preparation containing 500 parts per million (ppm) by weight of the compound except for the test on Meloidogyne incognita when a liquid preparation of 250 ppm by weight was used. The preparation was made by dissolving the compound in acetone and diluting the solution with water containing 0.1% by weight of a wetting agent sold under the trade name "SYNPERONIC" NX until the liquid preparation contained the required concentration of the product.
The test procedure adopted with regard to each pest was basically the same and comprised supporting a number of the pests on a medium which was usually a host plant or a foodstuff on which the pests feed, and treating either or both the pests and the medium with the preparation. The mortality of the pests was then assessed at periods usually varying from one to seven days after the treatment.
The results of the tests are given in Table VII as a grading of mortality designated as 9, 5 or 0 wherein 9 indicates 80-100% mortality, 5 indicates 50-79% mortality and 0 indicates less than 50% mortality.

Rice = assay: plant growth regulating, whole plant screen, rice; type: in vivo, Rice (Ishikari); conditions: rice (RC); 4000 ppm (4 kg/ha); after 2-6 weeks
Procedure: as §2, §3, §4, §5

Puccinia recondita = assay: fungicidal activity against foliar fungal diseases of plants, Puccinia recondita (wheat); type: in vivo; conditions: 100 ppm foliar spray plus root drench ca. 40 ppm a.i./dry soil, 1-2 days before inoculation
Cercospora arachidicola = assay: fungicidal activity against foliar fungal diseases of plants, Cercospora arachidicola (peanut); type: in vivo; conditions: 100 ppm foliar spray plus root drench ca. 40 ppm a.i./dry soil, 1-2 days before inoculation
[10] = tested on: Tetranychus urticae (spider mites - adults); assay: insecticidal properties, contact test, Tetranychus urticae adults (TUa); type: in vivo; conditions: 500 ppm, French bean leaf, 3 days
Text: as §1

Myzus persicae (aphids) = assay: insecticidal properties, contact test, Myzus persicae (MP); type: in vivo; conditions: 500 ppm, Chinese Cabbage leaf, 3 days
Text: as §1

Phytophthora infestans = type: in vivo; conditions: 100 ppm foliar spray plus root drench ca. 40 ppm a.i./dry soil, 1-2 days before inoculation
Tomato = assay: plant growth regulating, whole plant screen, tomato; type: in vivo, Tomato (Ailsa Craig); conditions: tomato (TO); 4000 ppm (4 kg/ha); after 2-6 weeks
Procedure: as §2, §3, §4, §5

Maize = assay: plant growth regulating, whole plant screen, maize; type: in vivo, Maize (Earliking); conditions: maize (MZ); 4000 ppm (4 kg/ha); after 2-6 weeks
Procedure: as §2, §3, §4, §5

SMILES: CO/C=C(/C(=O)OC)n1ccc2ccccc21 [Compound 1]
- grading of mortality, HV [1]: 0 (less than 50% mortality)
- grading of mortality, BG [2]: 0 (less than 50% mortality)
- grading of mortality, NL [3]: 0 (less than 50% mortality)
- I = Interligular or internodal length reduction (Apple): 1 (10-30%)
- R = Retardation (Apple): 1 (10-30%)
- grading of mortality, MDa [4]: 0 (less than 50% mortality)
- disease control, P[…] (RICE) (Pyricularia oryzae): 3 (trace--5% of disease on untreated plants)
- grading of mortality, DB [5]: 0 (less than 50% mortality)
- grading of mortality, MI [6]: 0 (less than 50% mortality)
- grading of mortality, MDk (knockdown) [7]: 0 (less than 50% mortality)
- disease control, VENTURIA INAEQUALIS (APPLE) (Venturia inaequalis): 3 (trace--5% of disease on untreated plants)
- disease control, ERYSIPHE GRAMINIS (BARLEY) (Erysiphe graminis): 1 (26-59% of disease on untreated plants)
- disease control, PLASMORPARA VITICOLA (VINE) (Plasmorpara viticola): 4
- grading of mortality, TUe [8]: 0 (less than 50% mortality)
- grading of mortality, CPA [9]: 9 (80-100% mortality)
- I = Interligular or internodal length reduction (Rice): 1 (10-30%)
- R = Retardation (Rice): 1 (10-30%)
- disease control, PUCCINIA RECONDITA (WHEAT) (Puccinia recondita): 0 (60-100% of disease on untreated plants)
- disease control, CERCOSPORA ARACHIDICOLA (PEANUT) (Cercospora arachidicola): 3 (trace--5% of disease on untreated plants)
- grading of mortality, TUa [10]: 9 (80-100% mortality)
- grading of mortality, MP (Myzus persicae (aphids)): 0 (less than 50% mortality)

SMILES: CCOc1ccc2ccn(/C(=C\OC)C(=O)OC)c2c1 [Compound 2, (Z)-methyl 3-methoxy-2-[6-ethoxyindol-1-yl]acrylate]
- disease control, PH[…] (TOMATO) (Phytophthora infestans): 4
- disease control, P[…] (RICE) (Pyricularia oryzae): 4
- disease control, VENTURIA INAEQUALIS (APPLE) (Venturia inaequalis): 4
- disease control, ERYSIPHE GRAMINIS (BARLEY) (Erysiphe graminis): 4
- disease control, PLASMORPARA VITICOLA (VINE) (Plasmorpara viticola): 4
- disease control, PUCCINIA RECONDITA (WHEAT) (Puccinia recondita): 4
- A = Apical damage (Tomato): 3 (61-100%)
- I = Interligular or internodal length reduction (Tomato): 3 (61-100%)
- P = Phytotoxicity (Tomato): 2 (11-30%)
- R = Retardation (Tomato): 3 (61-100%)
- T = Tillering or side shooting (Tomato): 1 (10-30%)
- disease control, CERCOSPORA ARACHIDICOLA (PEANUT) (Cercospora arachidicola): 4
- A = Apical damage (Maize): 2 (31-60%)
- G = Greening effect (Maize): 1 (10-30%)

SMILES: CO/C=C(/C(=O)OC)n1ccc2ccc(-c3ccccc3)cc21 [Compound 3, (Z)-methyl 3-methoxy-2-[6-phenylindol-1-yl]acrylate]
- disease control, PH[…] (TOMATO) (Phytophthora infestans): 4
- disease control, P[…] (RICE) (Pyricularia oryzae): 4
- disease control, VENTURIA INAEQUALIS (APPLE) (Venturia inaequalis): 4
- disease control, ERYSIPHE GRAMINIS (BARLEY) (Erysiphe graminis): 2 (6-25% of disease on untreated plants)
- disease control, PLASMORPARA VITICOLA (VINE) (Plasmorpara viticola): 4
- disease control, PUCCINIA RECONDITA (WHEAT) (Puccinia recondita): 4

SMILES: CO/C=C(/C(=O)OC)n1ccc2ccc(OC)cc21 [Compound 4]
- disease control, PH[…] (TOMATO) (Phytophthora infestans): 0 (60-100% of disease on untreated plants)
- disease control, P[…] (RICE) (Pyricularia oryzae): 4
- disease control, VENTURIA INAEQUALIS (APPLE) (Venturia inaequalis): 4
- disease control, ERYSIPHE GRAMINIS (BARLEY) (Erysiphe graminis): 2 (6-25% of disease on untreated plants)
- disease control, PLASMORPARA VITICOLA (VINE) (Plasmorpara viticola): 4
- disease control, PUCCINIA RECONDITA (WHEAT) (Puccinia recondita): 1 (26-59% of disease on untreated plants)
- disease control, CERCOSPORA ARACHIDICOLA (PEANUT) (Cercospora arachidicola): 3 (trace--5% of disease on untreated plants)

SMILES: CO/C=C(/C(=O)OC)n1ccc2ccc(Br)cc21 [Compound 7]
- disease control, PH[…] (TOMATO) (Phytophthora infestans): 4
- disease control, VENTURIA INAEQUALIS (APPLE) (Venturia inaequalis): 4
- disease control, ERYSIPHE GRAMINIS (BARLEY) (Erysiphe graminis): 4
- disease control, PLASMORPARA VITICOLA (VINE) (Plasmorpara viticola): 4
- disease control, PUCCINIA RECONDITA (WHEAT) (Puccinia recondita): 4
- disease control, CERCOSPORA ARACHIDICOLA (PEANUT) (Cercospora arachidicola): 4

SMILES: CO/C=C(/C(=O)OC)n1ccc2ccc(I)cc21 [Compound 8]
- disease control, PH[…] (TOMATO) (Phytophthora infestans): 4
- disease control, VENTURIA INAEQUALIS (APPLE) (Venturia inaequalis): 4
- disease control, ERYSIPHE GRAMINIS (BARLEY) (Erysiphe graminis): 4
- disease control, PLASMORPARA VITICOLA (VINE) (Plasmorpara viticola): 4
- disease control, PUCCINIA RECONDITA (WHEAT) (Puccinia recondita): 4
- disease control, CERCOSPORA ARACHIDICOLA (PEANUT) (Cercospora arachidicola): 4
